Tests used:
[1] = system: chloroquine-resistant Gambian FCR-3 strain of P. falciparum; test: Antiplasmodial tritiated hypoxanthine incorporation assay; type: cell-based, Plasmodium falciparum; conditions: for antiplasmodial activity (in words): FCR-3 strain of P. falciparum; for IC50: Plasmodium falciparum, FCR3, chloroquine-resistant FCR-3 strain, 0.5% parasitaemia, 1% haematocrit, triplicate; for Selectivity Index: ratio of cytotoxicity IC50 (MDA-MB-231) to antimalarial IC50 (FCR-3)
Protocol: All compounds were tested in triplicate against the chloroquine-resistant Gambian FCR-3 strain of P. falciparum. The in vitro erythrocytic stage of the parasite was maintained using the method outlined by Trager and Jensen. The antimalarial activity of the compounds was determined using the tritiated hypoxanthine incorporation assay using a 0.5% parasitaemia and 1% haematocrit. All assays were carried out using untreated parasites and uninfected red blood cells as controls. The concentration that inhibited 50% parasite growth (IC50 value) was determined from the log sigmoid dose response curve using GraphPad Prism. Quinine was used as the reference antiplasmodial agent. The selectivity index for the compounds was determined from the ratio of cytotoxicity IC50 to antimalarial IC50.

[2] = system: MDA-MB-231 breast carcinoma cells; test: Cytotoxicity WST-1 assay; type: cell-based; conditions: MDA-MB-231 cells; for IC50: Homo sapiens, WST-1, triplicate
Protocol: All compounds were tested in triplicate against MDA-MB-231 breast carcinoma cells, which were purchased from the ATCC (Catalogue number HTB-26, Manassas, VA, USA). The cytotoxicity of the compounds was determined using the WST-1 assay method (Roche). The cells were treated with a range of concentrations of the test compounds or vehicle control (DMSO). Cells treated with DMSO were considered to represent 100% viability and the viability of cells at each dose was represented relative to this value. The concentration resulting in a decrease of cell viability to 50% was calculated from the linear portion of the dose response curve.

[3] = system: Plasmodium falciparum (D10); parameters: method as in PMID 19227833; conditions: chloroquine sensitive strain D10 of P. falciparum; ref [5]; cited from earlier work
[4] = listed as sarganaphthoquinoic acid (10)

Row | IC50 [1] | SMILES | antiplasmodial activity (in words) [1] | Selectivity Index [1] | IC50 [2] | IC50 [3] | antiplasmodial activity (in words) [1, 4] | cytotoxicity (in words) [2] | cytotoxicity (in words) [2, 4]
1 | 104 µM | CC(C)=CCC/C(C=O)=C\CC/C(C)=C/CC/C(C)=C/CC1=CC(=O)C=C(C)C1=O [10E-sargaquinal (9), 10’E-sargaquinal] | decreased antiplasmodial activity | 0.7 | 69 µM | 2 µM | – | – | –
2 | 72.6 µM | CC(C)=CCC/C(C=O)=C/CC/C(C)=C/CC/C(C)=C/CC1=CC(=O)C=C(C)C1=O [10Z-sargaquinal (4), 2’E,6’E,10’Z-sargaquinal] | decreased antiplasmodial activity | 2.9 | 211 µM | – | – | – | –
3 | 0.17 µM | C=C[C@H]1C[N@@]2CC[C@H]1C[C@H]2[C@H](O)c1ccnc2ccc(OC)cc12 [Quinine, reference compound] | – | – | – | – | – | – | –
4 | 34.2 µM | CC(C)=CCC/C(=C/CC/C(C)=C/CCC1(C)C=Cc2cc(O)cc(C)c2O1)CO (stereo not drawn) [Sargachromendiol (8), sargachromendiol] | – | 5.5 | 187 µM | – | – | – | –
5 | 115 µM | CC(C)=CCC/C(=C/CC/C(C)=C/CCC1(C)C=Cc2cc(O)cc(C)c2O1)C(=O)O (stereo not drawn) [Sargachromenol (7), sargachromenol] | – | 0.5 | 56 µM | – | – | – | –
6 | 38.6 µM | CC(C)=CCC/C(=C/CC/C(C)=C/CC/C(C)=C/Cc1cc(O)cc(C)c1O)C(=O)O [Sargahydroquinoic acid (1), sargahydroquinoic acid] | – | 1.8 | 70 µM | 15.2 µM | – | – | –
7 | 84.3 µM | CC(=O)Oc1cc(C)c(OC(C)=O)c(C/C=C(\C)CC/C=C(\C)CC/C=C(/CCC=C(C)C)C(=O)O)c1 [Sargahydroquinoic acid di-acetate (2), Diacetyl Sargahydroquinoic Acid] | – | 3.4 | 286 µM | – | – | – | –
8 | 5.4 µM | CC(C)=CCC/C(=C/CC/C(C)=C/CCc1ccc2c(c1)C(=O)C=C(C)C2=O)C(=O)O [Sarganaphthoquinone (10), sarganaphthoquinoic acid] | most promising antiplasmodial activity | – | 2410 µM | – | good antiplasmodial activity | low cytotoxicity | almost non-toxic
9 | 10.8 µM | CC(C)=CCC/C(=C/CC/C(C)=C/CC/C(C)=C/CC1=CC(=O)C=C(C)C1=O)C(=O)O [Sargaquinoic acid (3), sargaquinoic acid] | most promising antiplasmodial activity | 60.9 | 658 µM | 12 µM | – | low cytotoxicity | –
10 | 8.2 µM | COC(=O)/C(=C\CC/C(C)=C/CC/C(C)=C/CC1=CC(=O)C=C(C)C1=O)CCC=C(C)C [Sargaquinoic acid methyl ester (5), sargaquinoic acid methyl ester] | – | 8.6 | 70 µM | – | – | – | –
11 | 93.1 µM | CC(C)=CCC/C(=C/CC/C(C)=C/CC/C(C)=C/CC1=CC(=O)C=C(C)C1=O)CO [Sargaquinol (6), sargaquinol] | decreased antiplasmodial activity | 1.1 | 99 µM | – | – | – | –

— publication PMC6630221, “Semi-Synthesis and Evaluation of Sargahydroquinoic Acid Derivatives as Potential Antimalarial Agents” (Medicines, 2019)
